# According to ChEMBL document CHEMBL5325408, “Design, synthesis, and biological activity studies on benzimidazole derivatives targeting myeloperoxidase” (Eur J Med Chem, 2023):
# Legend:
# [1] = target: T1, Myeloperoxidase (Homo sapiens) (UniProt P05164); test: Inhibition of human MPO using taurine as substrate assessed as reduction in substrate chlorination at 20 uM incubated for 30 mins by taurine-chloramine assay relative to control
# T1 sequence (whole entry): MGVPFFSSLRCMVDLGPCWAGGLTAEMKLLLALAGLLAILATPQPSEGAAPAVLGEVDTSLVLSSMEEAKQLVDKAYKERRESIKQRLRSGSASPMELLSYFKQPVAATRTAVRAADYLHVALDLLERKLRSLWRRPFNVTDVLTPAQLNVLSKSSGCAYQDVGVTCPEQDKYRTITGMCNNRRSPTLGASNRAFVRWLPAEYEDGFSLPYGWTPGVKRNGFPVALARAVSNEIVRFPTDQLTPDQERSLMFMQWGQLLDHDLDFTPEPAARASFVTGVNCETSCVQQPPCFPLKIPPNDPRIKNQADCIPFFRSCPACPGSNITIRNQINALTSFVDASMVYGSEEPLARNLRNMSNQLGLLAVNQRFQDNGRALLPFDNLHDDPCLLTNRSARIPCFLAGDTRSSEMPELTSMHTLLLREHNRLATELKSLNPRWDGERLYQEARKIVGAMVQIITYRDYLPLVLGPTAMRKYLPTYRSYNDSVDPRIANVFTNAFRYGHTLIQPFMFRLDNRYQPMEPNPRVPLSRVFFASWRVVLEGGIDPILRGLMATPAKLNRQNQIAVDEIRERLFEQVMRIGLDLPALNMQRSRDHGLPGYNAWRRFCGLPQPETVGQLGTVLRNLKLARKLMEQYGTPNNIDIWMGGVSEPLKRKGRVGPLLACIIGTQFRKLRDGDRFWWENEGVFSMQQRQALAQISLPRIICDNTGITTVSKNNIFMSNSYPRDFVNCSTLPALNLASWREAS
# Myeloperoxidase [2] = target: T2, Myeloperoxidase (Homo sapiens, UniProt P05164); test: Inhibition of human MPO using taurine as substrate assessed as reduction in substrate chlorination incubated for 30 mins by taurine-chloramine assay
# T2 sequence (P05164 whole entry): T1 sequence (whole entry)
# [3] = Antioxidant activity assessed as HOCl scavenging activity at 100 uM incubated for 10 mins in presence of TNB and taurine by absorbance based assay relative to control; format: functional
# [4] = target: T1, Myeloperoxidase (Homo sapiens); test: Inhibition of human MPO peroxidase activity at 100 uM incubated in presence of H2O2 by amplex red assay relative to control
# Myeloperoxidase [5] = target: T2, Myeloperoxidase; test: Inhibition of human MPO peroxidase activity incubated in presence of H2O2 by amplex red assay
smiles,measurement,setting,value
O=C(Cn1c(Cl)nc2ccccc21)NCc1ccccc1,inhibition,[1],24.9%
O=C(Cn1c(Cl)nc2ccccc21)Nc1ccccc1[N+](=O)[O-],inhibition,[1],31.8%
COc1ccc(NC(=O)Cn2c(=S)[nH]c3ccccc32)cc1,IC50,Myeloperoxidase [2],4.08 µM
same,inhibition,[1],81.7%
same,Activity,[3],2.83%
same,inhibition,[4],30.5%
O=C(CSc1nc2ccccc2[nH]1)N1CCCCC1,inhibition,[1],32%
O=C(Cn1c(=S)[nH]c2ccccc21)N1CCCCC1,inhibition,[1],58.2%
COc1cccc(NC(=O)Cn2c(Cl)nc3ccccc32)c1,inhibition,[1],46.6%
O=C(Cn1c(=S)[nH]c2ccccc21)Nc1ccccc1Cl,IC50,Myeloperoxidase [2],6.67 µM
same,inhibition,[1],89.4%
same,Activity,[3],5.47%
same,inhibition,[4],47.6%
Cc1ccc(NC(=O)CSc2nc3ccccc3[nH]2)cc1,IC50,Myeloperoxidase [2],8.51 µM
same,inhibition,[1],73%
same,inhibition,[4],0%
Cc1cccc(NC(=O)Cn2c(Cl)nc3ccccc32)c1,inhibition,[1],34.8%
O=C(CSc1nc2ccccc2[nH]1)Nc1ccccc1,inhibition,[1],50%
O=C(Cn1c(Cl)nc2ccccc21)N1CCOCC1,inhibition,[1],32.7%
O=C(Cn1c(Cl)nc2ccccc21)Nc1cccc([N+](=O)[O-])c1,inhibition,[1],44%
Cc1ccc(NC(=O)Cn2c(S)nc3ccccc32)cc1,inhibition,[1],41.1%
COc1ccc(NC(=O)Cn2c(Cl)nc3ccccc32)cc1,inhibition,[1],36.9%
Cc1ccccc1NC(=O)CSc1nc2ccccc2[nH]1,inhibition,[1],44.9%
O=C(Cn1c(=S)[nH]c2ccccc21)N1CCOCC1,inhibition,[1],52.2%
O=C(Cn1c(=S)[nH]c2ccccc21)Nc1cccc([N+](=O)[O-])c1,inhibition,[1],61.9%
CCOC(=O)Cn1c(Cl)nc2ccccc21,inhibition,[1],33.3%
COc1cccc(NC(=O)CSc2nc3ccccc3[nH]2)c1,inhibition,[1],61.4%
O=C(CSc1nc2ccccc2[nH]1)NCc1ccccc1,inhibition,[1],63.6%
O=C(CSc1nc2ccccc2[nH]1)N1CCOCC1,inhibition,[1],35.9%
O=C(Cn1c(=S)[nH]c2ccccc21)Nc1ccccc1,IC50,Myeloperoxidase [2],5.64 µM
same,IC50,Myeloperoxidase [5],95.4 µM
same,inhibition,[1],91.9%
same,inhibition,[4],57.5%
COc1cc(NC(=O)CSc2nc3ccccc3[nH]2)cc(OC)c1OC,inhibition,[1],68.9%
O=C(CSc1nc2ccccc2[nH]1)Nc1ccc([N+](=O)[O-])cc1,inhibition,[1],62.1%
O=C(CSc1nc2ccccc2[nH]1)Nc1cccc(Cl)c1,inhibition,[1],56.1%
COc1ccc(NC(=O)CSc2nc3ccccc3[nH]2)cc1,inhibition,[1],50%
O=C(Cn1c(Cl)nc2ccccc21)Nc1cccc(Cl)c1,inhibition,[1],67.8%
COc1ccccc1NC(=O)Cn1c(=S)[nH]c2ccccc21,IC50,Myeloperoxidase [2],3.72 µM
same,inhibition,[1],94.3%
same,Activity,[3],8.77%
same,inhibition,[4],19.1%
NNC(=O)Cn1c(=S)[nH]c2ccccc21,IC50,Myeloperoxidase [2],0.39 µM
same,IC50,Myeloperoxidase [5],82.7 µM
same,inhibition,[1],93.2%
same,inhibition,[4],71%
Cc1ccc(NC(=O)Cn2c(Cl)nc3ccccc32)cc1,inhibition,[1],36.5%
O=C(Cn1c(Cl)nc2ccccc21)Nc1ccc([N+](=O)[O-])cc1,inhibition,[1],54%
O=C(Cn1c(=S)[nH]c2ccccc21)Nc1ccc([N+](=O)[O-])cc1,inhibition,[1],61.4%
O=C(Cn1c(=S)[nH]c2ccccc21)Nc1ccc(Cl)cc1,IC50,Myeloperoxidase [2],7.76 µM
same,inhibition,[1],85.3%
same,Activity,[3],5.85%
same,inhibition,[4],21.7%
O=C(CSc1nc2ccccc2[nH]1)Nc1ccc(Cl)cc1,inhibition,[1],52.6%
CCOC(=O)Cn1c(=S)[nH]c2ccccc21,inhibition,[1],51.3%
COc1cc(NC(=O)Cn2c(=S)[nH]c3ccccc32)cc(OC)c1OC,inhibition,[1],62.6%
COc1cccc(NC(=O)Cn2c(=S)[nH]c3ccccc32)c1,inhibition,[1],65.5%
Cc1ccccc1NC(=O)Cn1c(=S)[nH]c2ccccc21,IC50,Myeloperoxidase [2],4.26 µM
same,inhibition,[1],93%
same,Activity,[3],0.94%
same,inhibition,[4],24%
O=C(CSc1nc2ccccc2[nH]1)Nc1ccccc1[N+](=O)[O-],inhibition,[1],48.5%
COc1cc(NC(=O)Cn2c(Cl)nc3ccccc32)cc(OC)c1OC,inhibition,[1],35.7%
O=C(Cn1c(Cl)nc2ccccc21)Nc1ccccc1Cl,inhibition,[1],21.9%
O=C(Cn1c(=S)[nH]c2ccccc21)Nc1cccc(Cl)c1,IC50,Myeloperoxidase [2],9.44 µM
same,inhibition,[1],75.7%
same,Activity,[3],1.04%
same,inhibition,[4],29.8%
Cc1cccc(NC(=O)Cn2c(=S)[nH]c3ccccc32)c1,IC50,Myeloperoxidase [2],3.86 µM
same,inhibition,[1],91.4%
same,Activity,[3],6.79%
same,inhibition,[4],26.7%
COc1ccccc1NC(=O)Cn1c(Cl)nc2ccccc21,inhibition,[1],39.3%
O=C(Cn1c(Cl)nc2ccccc21)Nc1ccccc1,inhibition,[1],27.9%
COc1ccccc1NC(=O)CSc1nc2ccccc2[nH]1,IC50,Myeloperoxidase [2],10.4 µM
same,inhibition,[1],72.6%
same,inhibition,[4],0%
Cc1cccc(NC(=O)CSc2nc3ccccc3[nH]2)c1,IC50,Myeloperoxidase [2],6.41 µM
same,inhibition,[1],92.5%
same,inhibition,[4],4.3%
O=C(Cn1c(=S)[nH]c2ccccc21)Nc1ccccc1[N+](=O)[O-],IC50,Myeloperoxidase [2],5.63 µM
same,inhibition,[1],70.2%
same,inhibition,[4],22.6%
O=C(Cn1c(Cl)nc2ccccc21)N1CCCCC1,inhibition,[1],29.1%
O=C(CSc1nc2ccccc2[nH]1)Nc1ccccc1Cl,inhibition,[1],54.4%
O=C(Cn1c(=S)[nH]c2ccccc21)NO,inhibition,[1],51.2%
O=C(CSc1nc2ccccc2[nH]1)Nc1cccc([N+](=O)[O-])c1,inhibition,[1],62.3%
O=C(Cn1c(Cl)nc2ccccc21)Nc1ccc(Cl)cc1,inhibition,[1],63.8%
Cc1ccccc1NC(=O)Cn1c(Cl)nc2ccccc21,inhibition,[1],28.5%
O=C(Cn1c(=S)[nH]c2ccccc21)NCc1ccccc1,IC50,Myeloperoxidase [2],4.33 µM
same,IC50,Myeloperoxidase [5],97.3 µM
same,inhibition,[1],95.3%
same,inhibition,[4],53.3%
